PubChem BioAssay (NCI)
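Five compound concentrations were applied to cells in 96-well plates for 48 hours; endpoints were derived by simple linear interpolation of the resulting dose-response curve. GI50 is the concentration that inhibits growth by half. Definition used: TGI = concentration required for complete inhibition of growth.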

Key:
Assay in all cases: DTP human tumour cell line panel, 48 h
[1] = system: 786-0 renal
[2] = system: A498 renal
[3] = system: CCRF-CEM leukemia
[4] = system: M14 melanoma
[5] = system: NCI-H226 lung
[6] = system: OVCAR-8 ovarian
[7] = system: RXF 393 renal
[8] = system: SN12C renal
[9] = system: U251 CNS
[10] = system: HCC-2998 colon

Row | SMILES | GI50 [1] | TGI [1] | GI50 [2] | TGI [2] | GI50 [3] | TGI [3] | GI50 [4] | TGI [4] | GI50 [5] | TGI [5] | GI50 [6] | TGI [6] | GI50 [7] | TGI [7] | GI50 [8] | TGI [8] | GI50 [9] | TGI [9] | GI50 [10] | TGI [10]
1 | CC(=O)CCc1ccc(Oc2c3ccccc3nc3occc23)cc1 | 18.5 µM | 45.2 µM | 15.8 µM | 29.2 µM | 24.1 µM | 94.7 µM | 15.3 µM | 29.2 µM | 15.5 µM | 34.3 µM | 15.7 µM | 41.4 µM | 14 µM | 39.1 µM | 26.7 µM | 96.5 µM | 13.5 µM | 33.8 µM | – | –
2 | OCC1CC2C=CCC(C2)C1 (stereo not drawn) | – | > 100 µM | – | > 100 µM | – | > 100 µM | – | > 100 µM | – | > 100 µM | – | > 100 µM | – | > 100 µM | – | > 100 µM | – | > 100 µM | – | –
3 | CCCCNC(=O)Oc1ccc(/C(=C(\C)c2ccc(OC)cc2)c2ccc(OCCN3CCCCC3)cc2)cc1 | 1.47 µM | 2.83 µM | – | – | 2.81 µM | 9.78 µM | 1.7 µM | 3.23 µM | 7.77 µM | 27.9 µM | 3.4 µM | 11.1 µM | 2.09 µM | 4.3 µM | 2.21 µM | 6.01 µM | 2.49 µM | 5.99 µM | 3.31 µM | 11.5 µM
4 | C[C@]12CC[C@@H]3c4ccc(O)cc4CC[C@H]3[C@@H]1CC(Cc1ccccc1)(Cc1ccccc1)C2=O | 13.6 µM | 26.7 µM | 21.3 µM | 36.5 µM | 14.3 µM | 36.4 µM | 13.1 µM | 26.2 µM | 16 µM | 31.3 µM | 21.5 µM | 61.3 µM | – | – | 14.8 µM | 29.2 µM | 16 µM | 31.8 µM | 4.04 µM | 14.2 µM
5 | [Mn+3].[O-][Cl+3]([O-])([O-])O.[O-]c1ccccc1C=NCCN1CC1.[O-]c1ccccc1C=NCCN1CC1 | 27.2 µM | > 100 µM | > 100 µM | > 100 µM | – | – | 26.9 µM | > 100 µM | 12.3 µM | 35.8 µM | 17.8 µM | > 100 µM | 63 µM | > 100 µM | 19.4 µM | > 100 µM | 15.7 µM | 38.6 µM | – | –
6 | COC(=O)CCCCCOS(=O)(=O)c1ccc(C)cc1 | – | > 100 µM | – | > 100 µM | – | > 100 µM | – | > 100 µM | – | – | – | > 100 µM | – | > 100 µM | – | > 100 µM | – | > 100 µM | – | > 100 µM
7 | Cc1cccc2c(=O)c3c(sc12)c(NCCCN)nc1ccccc13 | 1.69 µM | 3.28 µM | 1.88 µM | 5.64 µM | 1.32 µM | 3.13 µM | 1.58 µM | 3.13 µM | – | – | – | – | 1.48 µM | 2.87 µM | 1.47 µM | 2.93 µM | 1.51 µM | 3.01 µM | 1.67 µM | 3.39 µM
8 | COC(=O)C(/C(=N/N)C(=O)Nc1cc(Cl)ccc1Cl)c1nc2ccc([N+](=O)[O-])cc2[nH]c1=O (stereo not drawn) | – | > 100 µM | – | > 100 µM | – | > 100 µM | – | > 100 µM | – | > 100 µM | – | > 100 µM | – | – | – | > 100 µM | – | > 100 µM | – | > 100 µM
